Results taken from ChEMBL document CHEMBL5252651, “Discovery of Bioactive Metabolites by Acidic Stress to a Geldanamycin Producer, Streptomyces samsunensis” (J Nat Prod, 2023).
The source made the active and inactive calls.

Experiments:
Format in all cases: functional, organism-based
[1] = test system: Staphylococcus; experiment: Antivirulence activity against methicillin-resistant Staphylococcus aureus USA300 LAC assessed as inhibition of Phenol soluble modulin production at 5 ug/ml incubated for 22 hrs by LC-MS analysis; conditions: dose 5.0 µg/ml
[2] = test system: Staphylococcus aureus; experiment: Anti-biofilm activity against methicillin-resistant Staphylococcus aureus USA300 LAC assessed as inhibition of biofilm formation incubated for 22 hrs by crystal violet staining based assay
[3] = test system: Staphylococcus aureus; experiment: Antibacterial activity against methicillin-resistant Staphylococcus aureus USA300 LAC assessed as bacterial growth inhibition at 5 ug/ml incubated for 22 hrs by microplate reader analysis; conditions: dose 5.0 µg/ml
[4] = test system: Staphylococcus aureus; experiment: Antivirulence activity against methicillin-resistant Staphylococcus aureus USA300 LAC assessed as change in RNAIII transcriptional level at 10 ug/ml incubated for 8 to 16 hrs by qRT-PCR analysis; conditions: dose 10.0 µg/ml, time 8-16 hrs
[5] = test system: Staphylococcus aureus; experiment: Antivirulence activity against methicillin-resistant Staphylococcus aureus USA300 LAC assessed as change in […] transcriptional level at 10 ug/ml incubated for 8 to 16 hrs by qRT-PCR analysis; conditions: dose 10.0 µg/ml, time 8-16 hrs
[6] = test system: Staphylococcus aureus; experiment: Antibacterial activity against methicillin-resistant Staphylococcus aureus USA300 LAC assessed as bacterial growth inhibition at 10 ug/ml incubated for 22 hrs by microplate reader analysis; conditions: dose 10.0 µg/ml

CC(=O)Nc1cc(O)cc(C[C@@H](C)C(=O)O)c1
inactive: inhibition [1] | Activity [2] | Activity [3]

CO[C@H]1C[C@H](C)CC2=C(O)C(=O)C=C(NC(=O)/C(C)=C/[C@H](O)C[C@H](OC)[C@@H](OC(N)=O)/C(C)=C/[C@H](C)[C@H]1O)C2=O
inactive: inhibition [1] | Activity [2] | Activity [3]

CO[C@H]1/C=C\C=C(/C)C(=O)Nc2cc(O)c(O)c(c2O)C[C@@H](C)C[C@H](OC)[C@H](O)[C@@H](C)/C=C(\C)[C@@H]1OC(N)=O
inactive: inhibition [1] | Activity [2] | Activity [3]

O=C(O)/C=C/C1=C(c2cccc(O)c2)C(=O)CC[C@H]1O
inactive: inhibition [1] | Activity [2] | Activity [3]

COc1c(-c2ccccc2)cc(O[C@@H]2O[C@H](C(=O)O)[C@@H](O)[C@H](O)[C@H]2O)c(-c2ccccc2)c1O
inactive: inhibition [1] | Activity [2] | Activity [3]

Cc1cc(C[C@H](NC(=O)/C=C/C=C/CO)C(=O)O)ccc1O
inactive: inhibition [1] | Activity [2] | Activity [3]

CO[C@H]1C[C@H](C)CC2=C(O)C(=O)C=C(NC(=O)/C(C)=C/[C@@H](O)C[C@H](OC)[C@@H](OC(N)=O)/C(C)=C/[C@H](C)[C@H]1O)C2=O
inactive: inhibition [1] | Activity [2] | Activity [3]

CO[C@H]1/C=C\C=C(/C)C(=O)NC2=CC(=O)C(O)=C(C[C@@H](C)C[C@H](OC)[C@H](O)[C@@H](C)/C=C(\C)[C@@H]1OC(N)=O)C2=O
inactive: Activity [4] | Activity [5] | inhibition [1] | Activity [6] | Activity [2] | Activity [3]

CO[C@@H](C[C@H](C)Cc1cc(O)cc(NC(C)=O)c1)[C@H](O)[C@H](C)C(=O)O
inactive: Activity [4] | Activity [5] | inhibition [1] | Activity [6] | Activity [2] | Activity [3]

COC1=C2C[C@@H](C)C[C@H](OC)[C@H](O)[C@@H](C)/C=C(\C)[C@H](OC(N)=O)[C@@H](OC)/C=C\C=C(/C)C(=O)NC(=CC1=O)C2=O
inactive: Activity [4] | Activity [5] | inhibition [1] | Activity [6] | Activity [2] | Activity [3]

CO[C@@H](C[C@H](C)Cc1cc(O)cc(NC(C)=O)c1)C(=O)O
inactive: inhibition [1] | Activity [2] | Activity [3]
